Measurements as given in patent US8642801B2 (BHI Limited Partnership, priority 2003, dated 2014).

Target: T1, Aβ40 and Aβ42 peptides in plasma and brain of TgCRND8 mice (Homo sapiens, UniProt P05067)
T1 construct: ELISA using Human Aβ40 and Aβ42 Fluorometric ELISA kits from Biosource; from tissue; host or cells: plasma and brain homogenate of TgCRND8 transgenic mice (hAPP transgene)
Assay: Long term treatment in adult transgenic CRND8 mice overexpressing βAPP: Aβ levels in plasma and brain by ELISA
Type: in vivo, Mouse
Settings: BX subcutaneous, BW and BZ oral, vs vehicle or methylcellulose control
Source text: Transgenic mice, TgCRND8, as those used in the short term treatment, overexpress a human APP gene with the Swedish and Indiana mutations leading to the production of high levels of the amyloid peptides and to the development of an early-onset, aggressive development of brain amyloidosis. The high levels of Aβ peptides and the relative overabundance of Aβ42 compared to Aβ40 are believed to be associated with the severe and early degenerative pathology observed. The pattern of amyloid deposition, presence of dystrophic neuritis, and cognitive deficit has been well documented in this transgenic mouse line. The levels of Aβ peptides in the brain of these mice increase dramatically as the animals age. While the total amyloid peptide levels increase from ˜1.6×10^5 pg/g of brain to ˜3.8×10^6 between 9 and 17 weeks of age.
The long-term therapeutic effects of compounds of the present invention on cerebral amyloid deposition and β-amyloid (Aβ) levels in the plasma and in the brains of transgenic mice, TgCRND8, expressing the human amyloid precursor protein (hAPP) was studied. These compounds were administered over an 8 or 16 week period at the end of which the levels of Aβ peptides in the plasma and brain of TgCRND8 animals were determined. The goal of this study was to evaluate the efficacy of the compounds at modulating the progression of the amyloidogenic process in the brain and in the plasma of a transgenic mouse model of Alzheimer's disease (AD)
The mice used in the study consisted of animals bearing one copy of the hAPP gene (+/−) from the 2nd and 3rd generation progenies (N2 and N3) derived from backcrosses from TgCRND8.FVB(N2)AJ(N3) with B6AF1/J hybrid animals. N1=TgCRND8.FVB(N2)AJ(N3)×B6AF1/J N2=TgCRND8.FVB(N2)AJ(N3).B6AF1/J(N1)×B6AF1/J N3=TgCRND8.FVB(N2)AJ(N3).B6AF1/J(N2)×B6AF1/a
The following abbreviations are used to designate these animals in the present study: TgCRND8.B6AF1/J(N2); TgCRND8.B6AF1/J(N3). Male and female transgenic mice were given daily subcutaneous (compound BX) or oral (compounds BW and BZ) administrations of the appropriate compounds for 8 or 16 weeks.
Baseline animals consisted of 9±1 week old naive TgCRND8.B6AF1/J animals from the 2nd and 3rd generations. These mice were used to determine the extent of cerebral amyloid deposits and Aβ levels in the plasma and brain of naive transgenic animals at the initiation of treatment.
Starting at 9 weeks of age (±1 week) animals received daily administration of their respective treatment for a period of 8 or 16 weeks, at a dose of 30 or 100 mg/kg at 10 ml/kg. The route of administration was subcutaneous for water-soluble compounds (Compound BX) and oral for compounds solubilized in methylcellulose 1% (MC 1%) (Compounds BW and BZ). At the end of the treatment periods, plasma and perfused brains were collected for quantification of Aβ levels.
Animal health was monitored, samples were collected and Aβ levels were measured as described above in the short term treatment study. Compounds were scored based on their ability to modulate levels of Aβ peptides in the plasma and the cerebral soluble/insoluble levels in the brain. Levels of Aβ observed in the plasma and brain of treated animals were compared to that of vehicle-treated (water) or methylcellulose-treated control groups and ranked according to the strength of the pharmacological effect. Increases in the levels of Aβ peptides are indicated using “+” symbols, while decreases in the levels of Aβ peptides are indicated using “−” symbols. The strongest effects are recorded as “+++” or “−−−” while the weakest are shown as “+” or “−”.
Specifically, increases in the levels of Aβ (relative to vehicle treated control) of 5 to 14% are scored as “+”; increases of 15 to 29% are scored as “++”; and increases of 30% or higher are scored as “+++”. Decreases in the levels of Aβ of 5 to 14% are scored as “−”; decreases of 15 to 29% are scored as “−−”; and decreases of 30% or more are scored as “−−−”. […]

| SMILES | Brain Abeta40 insoluble (30 mg/kg daily, 8 wks) | Brain Abeta40 soluble (30 mg/kg daily, 8 wks) | Brain Abeta42 insoluble (30 mg/kg daily, 8 wks) | Brain Abeta42 soluble (30 mg/kg daily, 8 wks) | Plasma Abeta40 (30 mg/kg daily, 8 wks) | Plasma Abeta42 (30 mg/kg daily, 8 wks) | Brain Abeta40 insoluble (30 mg/kg daily, 16 wks) | Brain Abeta40 soluble (30 mg/kg daily, 16 wks) | Brain Abeta42 insoluble (30 mg/kg daily, 16 wks) | Brain Abeta42 soluble (30 mg/kg daily, 16 wks) | Plasma Abeta40 (30 mg/kg daily, 16 wks) | Plasma Abeta42 (30 mg/kg daily, 16 wks) | Brain Abeta40 insoluble (100 mg/kg daily, 8 wks) | Brain Abeta40 soluble (100 mg/kg daily, 8 wks) | Brain Abeta42 insoluble (100 mg/kg daily, 8 wks) | Brain Abeta42 soluble (100 mg/kg daily, 8 wks) | Plasma Abeta40 (100 mg/kg daily, 8 wks) | Plasma Abeta42 (100 mg/kg daily, 8 wks) | Brain Abeta40 insoluble (100 mg/kg daily, 16 wks) | Brain Abeta40 soluble (100 mg/kg daily, 16 wks) | other results |
| --- | --- | --- | --- | --- | --- | --- | --- | --- | --- | --- | --- | --- | --- | --- | --- | --- | --- | --- | --- | --- | --- |
| O=S(=O)(O)CCCNC1C2CC3CC(C2)CC1C3 (stereo not drawn) [BZ, 3-(2-adamantyl)amino-1-propanesulfonic acid] | −− (decreases of 15 to 29% are scored as “−−”) | 0 (changes of 4% or less in either direction are scored as “0”) | −−− (decreases of 30% or more are scored as “−−−”) | 0 (changes of 4% or less in either direction are scored as “0”) | 0 (changes of 4% or less in either direction are scored as “0”) | 0 (changes of 4% or less in either direction are scored as “0”) | + (increases in the levels of Aβ (relative to vehicle treated control) of 5 to 14% are scored as “+”) | 0 (changes of 4% or less in either direction are scored as “0”) | 0 (changes of 4% or less in either direction are scored as “0”) | + (increases in the levels of Aβ (relative to vehicle treated control) of 5 to 14% are scored as “+”) | 0 (changes of 4% or less in either direction are scored as “0”) | + (increases in the levels of Aβ (relative to vehicle treated control) of 5 to 14% are scored as “+”) | 0 (changes of 4% or less in either direction are scored as “0”) | ++ (increases of 15 to 29% are scored as “++”) | − (Decreases in the levels of Aβ of 5 to 14% are scored as “−”) | 0 (changes of 4% or less in either direction are scored as “0”) | ++ (increases of 15 to 29% are scored as “++”) | +++ (increases of 30% or higher are scored as “+++”) | 0 (changes of 4% or less in either direction are scored as “0”) | −− (decreases of 15 to 29% are scored as “−−”) | Brain Abeta42 insoluble (100 mg/kg daily, 16 wks): + (increases in the levels of Aβ (relative to vehicle treated control) of 5 to 14% are scored as “+”); Brain Abeta42 soluble (100 mg/kg daily, 16 wks): − (Decreases in the levels of Aβ of 5 to 14% are scored as “−”); Plasma Abeta40 (100 mg/kg daily, 16 wks): ++ (increases of 15 to 29% are scored as “++”); Plasma Abeta42 (100 mg/kg daily, 16 wks): ++ (increases of 15 to 29% are scored as “++”) |
| O=S(=O)(O)CCCNC12CC3CC(CC(C3)C1)C2 [BW, 3-(1-adamantyl)amino-1-propanesulfonic acid] | −− (decreases of 15 to 29% are scored as “−−”) | − (Decreases in the levels of Aβ of 5 to 14% are scored as “−”) | 0 (changes of 4% or less in either direction are scored as “0”) | −− (decreases of 15 to 29% are scored as “−−”) | −−− (decreases of 30% or more are scored as “−−−”) | −−− (decreases of 30% or more are scored as “−−−”) | ++ (increases of 15 to 29% are scored as “++”) | + (increases in the levels of Aβ (relative to vehicle treated control) of 5 to 14% are scored as “+”) | + (increases in the levels of Aβ (relative to vehicle treated control) of 5 to 14% are scored as “+”) | − (Decreases in the levels of Aβ of 5 to 14% are scored as “−”) | −− (decreases of 15 to 29% are scored as “−−”) | −− (decreases of 15 to 29% are scored as “−−”) | −−− (decreases of 30% or more are scored as “−−−”) | −− (decreases of 15 to 29% are scored as “−−”) | −−− (decreases of 30% or more are scored as “−−−”) | −− (decreases of 15 to 29% are scored as “−−”) | − (Decreases in the levels of Aβ of 5 to 14% are scored as “−”) | − (Decreases in the levels of Aβ of 5 to 14% are scored as “−”) | + (increases in the levels of Aβ (relative to vehicle treated control) of 5 to 14% are scored as “+”) | ++ (increases of 15 to 29% are scored as “++”) | Brain Abeta42 insoluble (100 mg/kg daily, 16 wks): ++ (increases of 15 to 29% are scored as “++”); Brain Abeta42 soluble (100 mg/kg daily, 16 wks): + (increases in the levels of Aβ (relative to vehicle treated control) of 5 to 14% are scored as “+”); Plasma Abeta40 (100 mg/kg daily, 16 wks): − (Decreases in the levels of Aβ of 5 to 14% are scored as “−”); Plasma Abeta42 (100 mg/kg daily, 16 wks): − (Decreases in the levels of Aβ of 5 to 14% are scored as “−”) |
